Results: PubChem BioAssay AID248 (DTP/NCI, 2004)
Where “and” joins values, the source holds several entries; their conditions need not be identical. Equal entries are not always repeated. Inconclusive results and toxic doses are left out.

Tested on: L1210 leukemia ip in BDF1 mice, survival T/C
Test: NCI In Vivo Anticancer Drug Screen. Data for tumor model L1210 Leukemia (intraperitoneal) in B6D2F1 (BDF1) mice
Settings: endpoint: mean survival time, higher = longer survival
How it was run: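 Transplanted-tumor mice were given test agent; controls received vehicle only. Survival readings from the two groups were divided (treated over control).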

[1] = dose: 25.0 mg/kg/injection, schedule: Q01DX009 (ip), vehicle: Klucel (hydroxypropylcellulose) (HPC)
[2] = dose: 100.0 mg/kg/injection, schedule: Q01DX009 (ip), vehicle: Klucel (hydroxypropylcellulose) (HPC)
[3] = dose: 50.0 mg/kg/injection, schedule: Q01DX009 (ip), vehicle: Klucel (hydroxypropylcellulose) (HPC)
[4] = dose: 100.0 mg/kg/injection, schedule: Q04DX003 (ip), vehicle: Klucel (hydroxypropylcellulose) (HPC)
[5] = dose: 200.0 mg/kg/injection, schedule: Q01DX009 (ip), vehicle: Klucel (hydroxypropylcellulose) (HPC)
[6] = dose: 200.0 mg/kg/injection, schedule: Q04DX003 (ip), vehicle: Klucel (hydroxypropylcellulose) (HPC)
[7] = dose: 100.0 mg/kg/injection, schedule: Q01DX009 (ip), vehicle: saline with Tween-80
[8] = dose: 100.0 mg/kg/injection, schedule: Q01DX009 (ip), vehicle: saline
[9] = dose: 100.0 mg/kg/injection, schedule: Q04DX003 (ip), vehicle: saline
[10] = dose: 200.0 mg/kg/injection, schedule: Q01DX009 (ip), vehicle: saline
[11] = dose: 200.0 mg/kg/injection, schedule: Q04DX003 (ip), vehicle: saline
[12] = dose: 400.0 mg/kg/injection, schedule: Q01DX009 (ip), vehicle: saline with Tween-80
[13] = dose: 400.0 mg/kg/injection, schedule: Q04DX003 (ip), vehicle: saline
[14] = dose: 100.0 mg/kg/injection, schedule: Q01DX001 (ip), vehicle: saline sonified
[15] = dose: 200.0 mg/kg/injection, schedule: Q01DX001 (ip), vehicle: saline sonified
[16] = dose: 400.0 mg/kg/injection, schedule: Q04DX003 (ip), vehicle: Klucel (hydroxypropylcellulose) (HPC)
[17] = dose: 100.0 mg/kg/injection, schedule: Q04DX002 (ip), vehicle: Klucel (hydroxypropylcellulose) (HPC)
[18] = dose: 200.0 mg/kg/injection, schedule: Q04DX002 (ip), vehicle: Klucel (hydroxypropylcellulose) (HPC)
[19] = dose: 400.0 mg/kg/injection, schedule: Q04DX002 (ip), vehicle: Klucel (hydroxypropylcellulose) (HPC)
[20] = dose: 400.0 mg/kg/injection, schedule: Q01DX009 (ip), vehicle: Klucel (hydroxypropylcellulose) (HPC)
[21] = dose: 100.0 mg/kg/injection, schedule: Q04DX002 (ip), vehicle: saline with Tween-80
[22] = dose: 200.0 mg/kg/injection, schedule: Q04DX002 (ip), vehicle: saline with Tween-80
[23] = dose: 50.0 mg/kg/injection, schedule: Q01DX009 (ip), vehicle: saline

CCOC(=O)c1ccc(NC(=O)Nc2cccc(Cl)c2)cc1
T/C (dose: 3.0 mg/kg/injection, schedule: Q01DX009 (ip), vehicle: Klucel (hydroxypropylcellulose) (HPC)): 94 % of control
T/C (dose: 6.0 mg/kg/injection, schedule: Q01DX009 (ip), vehicle: Klucel (hydroxypropylcellulose) (HPC)): 107 % of control
T/C (dose: 12.0 mg/kg/injection, schedule: Q01DX009 (ip), vehicle: Klucel (hydroxypropylcellulose) (HPC)): 94 % of control
T/C [1]: 101 % of control
T/C [2]: 93 % of control

CCN(CC)C(=O)c1ccc([N+](=O)[O-])cc1
T/C [3]: 97 % of control
T/C [2]: 97 % of control
T/C [4]: 92 % of control
T/C [5]: 95 % of control
T/C [6]: 100 % of control

CN(C)c1ccc(/C=C/c2cnccn2)cc1
T/C [1]: 107 % of control
T/C [4]: 94 % of control
T/C [6]: 93 % of control

O=C(O)C1C2CC(O)C(C2)C1C(=O)O (stereo not drawn)
T/C (dose: 100.0 mg/kg/injection, schedule: Q01DX001 (ip), vehicle: saline with Tween-80): 94 % of control
T/C [7]: 93 % of control
T/C [8]: 105 % of control
T/C [9]: 94 % of control
T/C (dose: 200.0 mg/kg/injection, schedule: Q01DX001 (ip), vehicle: saline with Tween-80): 98 % of control
T/C (dose: 200.0 mg/kg/injection, schedule: Q01DX009 (ip), vehicle: saline with Tween-80): 95 % of control
T/C [10]: 105 % of control
T/C [11]: 96 % of control
T/C (dose: 400.0 mg/kg/injection, schedule: Q01DX001 (ip), vehicle: saline with Tween-80): 100 % of control
T/C [12]: 96 % of control
T/C (dose: 400.0 mg/kg/injection, schedule: Q01DX009 (ip), vehicle: saline): 98 % of control
T/C [13]: 93 % of control

O=c1[nH]c(=O)c2c3c(sc2[nH]1)CCCC3
T/C [14]: 91 % of control
T/C [15]: 91 % of control
T/C (dose: 400.0 mg/kg/injection, schedule: Q01DX001 (ip), vehicle: saline sonified): 103 % of control

O=C1c2ccccc2-c2cccc3cccc1c23
T/C (dose: 50.0 mg/kg/injection, schedule: Q01DX001 (ip), vehicle: saline sonified): 94 % of control
T/C [14]: 95 % of control
T/C (dose: 100.0 mg/kg/injection, schedule: Q01DX009 (ip), vehicle: gum acacia): 105 % of control
T/C [15]: 97 % of control
T/C (dose: 200.0 mg/kg/injection, schedule: Q01DX009 (ip), vehicle: gum acacia): 96 % of control
T/C (dose: 400.0 mg/kg/injection, schedule: Q01DX009 (ip), vehicle: gum acacia): 102 % of control

CCOP(=O)(OCC)C(=O)C1C(C=C(C)C)C1(C)C (stereo not drawn)
T/C (dose: 100.0 mg/kg/injection, schedule: Q04DX002 (ip), vehicle: saline): 123 % of control
T/C (dose: 200.0 mg/kg/injection, schedule: Q04DX002 (ip), vehicle: saline): 104 % of control
T/C (dose: 400.0 mg/kg/injection, schedule: Q04DX002 (ip), vehicle: saline): 115 % of control

CN(c1ccccc1)S(=O)(=O)c1cccc([N+](=O)[O-])c1
T/C [4]: 103 % of control
T/C [6]: 94 % of control
T/C [16]: 101 % of control

CCOC(=O)c1cnccc1C#N
T/C [17]: 88 % of control
T/C [18]: 100 % of control
T/C [19]: 100 % of control

CN(C)C(=O)C1C2CCC(C3CC32)C1C(=O)N(C)C (stereo not drawn)
T/C (dose: 75.0 mg/kg/injection, schedule: Q01DX009 (ip), vehicle: saline): 95 % of control
T/C [9]: 106 % of control
T/C (dose: 150.0 mg/kg/injection, schedule: Q01DX009 (ip), vehicle: saline): 97 % of control
T/C [11]: 106 % of control
T/C (dose: 300.0 mg/kg/injection, schedule: Q01DX009 (ip), vehicle: saline): 95 % of control
T/C [13]: 103 % of control

CC(=O)NC1(CO)CCCCC1
T/C [9]: 105 % of control
T/C [11]: 95 % of control
T/C [13]: 94 % of control

COc1ccc(/C=N/NC(=O)C(O)c2ccccc2)cc1 (stereo not drawn)
T/C [2]: 92 % of control
T/C [5]: 99 % of control
T/C [20]: 86 % of control

CCCCCOP(=O)(Cc1ccc(Cl)cc1)OCCCCC
T/C [4]: 87 % of control
T/C [6]: 90 % of control
T/C [16]: 100 % of control

CC(C)(C)N1C=C(c2ccccc2)N=CC1(c1ccccc1)C(C)(C)C (stereo not drawn)
T/C (dose: 50.0 mg/kg/injection, schedule: Q04DX002 (ip), vehicle: saline with Tween-80): 99 % of control
T/C [17]: 92 % of control
T/C [21]: 99 % of control
T/C [18]: 100 % of control
T/C [22]: 99 % of control
T/C [19]: 103 % of control

O=C1c2ccccc2C(=O)N1c1c2ccccc2cc2ccccc12
T/C (dose: 100.0 mg/kg/injection, schedule: Q04DX003 (ip), vehicle: saline sonified): 98 % of control
T/C (dose: 200.0 mg/kg/injection, schedule: Q04DX003 (ip), vehicle: saline sonified): 95 % of control
T/C (dose: 400.0 mg/kg/injection, schedule: Q04DX003 (ip), vehicle: saline sonified): 95 % of control

C/C=C\C(=O)OC.[W]
T/C [23]: 97 % of control
T/C [8]: 105 % of control
T/C [10]: 108 % of control

CN1CCC2(CC1)C(C#N)C(=O)NC(=O)C2C#N (stereo not drawn)
T/C (dose: 100.0 mg/kg/injection, schedule: Q01DX001 (ip), vehicle: carboxymethylcellulose (CMC)): 92 % of control
T/C (dose: 200.0 mg/kg/injection, schedule: Q01DX001 (ip), vehicle: carboxymethylcellulose (CMC)): 101 % of control
T/C (dose: 400.0 mg/kg/injection, schedule: Q01DX001 (ip), vehicle: carboxymethylcellulose (CMC)): 95 % of control

NC(=O)C=C1c2ccccc2-c2ccccc21
T/C [1]: 97 % of control
T/C [3]: 94 % of control
T/C [2]: 96 % of control
T/C [5]: 91 % of control
T/C [20]: 89 % of control

Cc1cn2c(nc1=O)OC1CC2OC1CO (stereo not drawn)
T/C (dose: 100.0 mg/kg/injection, schedule: Q01DX005 (ip), vehicle: saline): 122 % of control
T/C (dose: 200.0 mg/kg/injection, schedule: Q01DX005 (ip), vehicle: saline): 152 % of control

COc1n[n+]([O-])c(Cl)c(C)c1[N+](=O)[O-]
T/C [21]: 105 % of control
T/C [22]: 102 % of control
T/C (dose: 400.0 mg/kg/injection, schedule: Q04DX002 (ip), vehicle: saline with Tween-80): 96 % of control

Nc1nnc(N)n1N
T/C (dose: 87.5 mg/kg/injection, schedule: Q04DX003 (ip), vehicle: Klucel (hydroxypropylcellulose) (HPC)): 105 % of control
T/C (dose: 175.0 mg/kg/injection, schedule: Q04DX003 (ip), vehicle: Klucel (hydroxypropylcellulose) (HPC)): 100 % of control
T/C (dose: 350.0 mg/kg/injection, schedule: Q04DX003 (ip), vehicle: Klucel (hydroxypropylcellulose) (HPC)): 103 % of control

COc1cc(Br)c(CC(=O)c2cn(C(=O)Cc3cc(OC)c(OC)cc3Br)c3ccc(Br)cc23)cc1OC
T/C (dose: 50.0 mg/kg/injection, schedule: Q01DX001 (ip), vehicle: saline): 106 % of control
T/C (dose: 100.0 mg/kg/injection, schedule: Q01DX001 (ip), vehicle: saline): 96 % of control
T/C (dose: 200.0 mg/kg/injection, schedule: Q01DX001 (ip), vehicle: saline): 102 % of control
T/C (dose: 400.0 mg/kg/injection, schedule: Q01DX001 (ip), vehicle: saline): 96 % of control

O=C(COc1ccc(F)cc1Cl)OCCOCCO
T/C [17]: 106 % of control
T/C [18]: 95 % of control
T/C [19]: 106 % of control

O=CNc1ccc(Br)cc1
T/C (dose: 50.0 mg/kg/injection, schedule: Q04DX003 (ip), vehicle: Klucel (hydroxypropylcellulose) (HPC)): 97 % of control
T/C [2]: 98 % of control
T/C [4]: 97 % of control
T/C [5]: 98 % of control
T/C [6]: 100 % of control

CN(N=O)C(=O)NCC1OC(OC2(CO)OC(CNC(=O)N(C)N=O)C(O)C2O)C(O)C(O)C1O (stereo not drawn)
T/C (dose: 50.0 mg/kg/injection, schedule: Q01DX009 (ip), vehicle: saline with Tween-80): 107 % of control
T/C [23]: 91 % of control
T/C [7]: 121 % of control
T/C [8]: 109 % of control
T/C [12]: 154 % of control

Clc1ccc(Cl)c(NNc2cc(Cl)ccc2Cl)c1
T/C [1]: 114 % of control
T/C [3]: 98 % of control
T/C [2]: 96 % of control and 92 % of control
T/C [4]: 98 % of control
T/C [6]: 101 % of control
